Measurements taken from US12319648B2, “Fluorinated phenylacetic acid derivatives in a weed control method” (SYNGENTA CROP PROTECTION AG, priority 2019, dated 2025).

What was measured:
Type in all cases: in vivo
[1] = tested on: Echinochloa crus-galli (ECHCG); assay: Pre-emergence herbicidal glasshouse test; details: pre-emergence, 250 g/ha, 13 days after application
Procedure: (§1) Seeds of a variety of test species are shown in standard soil in pots Amaranthus retoflexus (AMARE), Ipomoea hederacea (IPOHE), Solanum nigrum (SOLNI), Lolium perenne (LOLPE). Echinochloa crus-galli (ECHCG), Setaria faberi (SETFA)). After cultivation for one day (pre-emergence) or after 8 days cultivation (post-emergence) under controlled conditions in a glasshouse (at 24/16° C., day/night; 14 hours light; 65% humidity), the plants are sprayed with an aqueous spray solution derived from the formulation of the technical active ingredient in acetone/water (50:50) solution containing 0.5% Tween 20 (polyoxyethylene sorbitan monolaurate, CAS RN 9005-64-5). Compounds are applied at 250 g/ha unless otherwise stated. The test plants are then grown in a glasshouse under controlled conditions in a glasshouse (at 24/16° C., day/night; 14 hours light; 65% humidity) and watered twice daily. After 13 days for pre and post-emergence, the test is evaluated for the percentage damage caused to the plant. The biological activities are shown in the following table on a five-point scale (5=81-100%; 4=61-80%; 3=41-60%; 2=21-40%; 1=0-20%).
(§2) Using the experimental conditions outlined above, a further test is conducted to compare the herbicidal properties of the difluro containing compound (1.014) with a representative compound (C1) referred to in GB901553. The compounds are applied at 1000 g/ha and 500 g/ha. The test is evaluated for the percentage damage caused to the plant (% phytotoxicity).

[2] = tested on: Ipomoea hederacea (IPOHE); assay: Pre-emergence herbicidal glasshouse test; details: pre-emergence, 250 g/ha, 13 days after application
Procedure: as §1, §2

Setaria faberi (SETFA) [3] = assay: Pre-emergence herbicidal glasshouse test; details: pre-emergence, 250 g/ha, 13 days after application
Procedure: as §1, §2

Lolium perenne (LOLPE) [4] = assay: Pre-emergence herbicidal glasshouse test; details: pre-emergence, 250 g/ha, 13 days after application
Procedure: as §1, §2

[5] = tested on: Amaranthus retoflexus (AMARE); assay: Post-emergence herbicidal glasshouse test; details: post-emergence, 250 g/ha, 13 days after application
Procedure: as §1, §2

[6] = tested on: Echinochloa crus-galli (ECHCG); assay: Post-emergence herbicidal glasshouse test; details: post-emergence, 250 g/ha, 13 days after application
Procedure: as §1, §2

[7] = tested on: Ipomoea hederacea (IPOHE); assay: Post-emergence herbicidal glasshouse test; details: post-emergence, 250 g/ha, 13 days after application
Procedure: as §1, §2

Setaria faberi (SETFA) [8] = assay: Post-emergence herbicidal glasshouse test; details: post-emergence, 250 g/ha, 13 days after application
Procedure: as §1, §2

Solanum nigrum (SOLNI) = assay: Post-emergence herbicidal glasshouse test; details: post-emergence, 250 g/ha, 13 days after application
Procedure: as §1, §2

Lolium perenne (LOLPE) [9] = assay: Post-emergence herbicidal glasshouse test; details: post-emergence, 250 g/ha, 13 days after application
Procedure: as §1, §2

[10] = tested on: Amaranthus retoflexus (AMARE); assay: Pre-emergence herbicidal glasshouse test; details: pre-emergence, 250 g/ha, 13 days after application
Procedure: as §1, §2

| SMILES | percentage damage caused to the plant, five-point scale, ECHCG [1] | percentage damage caused to the plant, five-point scale, IPOHE [2] | percentage damage caused to the plant, five-point scale, SETFA (Setaria faberi (SETFA) [3]) | percentage damage caused to the plant, five-point scale, LOLPE (Lolium perenne (LOLPE) [4]) | percentage damage caused to the plant, five-point scale, AMARE [5] | percentage damage caused to the plant, five-point scale, ECHCG [6] | percentage damage caused to the plant, five-point scale, IPOHE [7] | percentage damage caused to the plant, five-point scale, SETFA (Setaria faberi (SETFA) [8]) | percentage damage caused to the plant, five-point scale, SOLNI (Solanum nigrum (SOLNI)) | percentage damage caused to the plant, five-point scale, LOLPE (Lolium perenne (LOLPE) [9]) | percentage damage caused to the plant, five-point scale, AMARE [10] |
| --- | --- | --- | --- | --- | --- | --- | --- | --- | --- | --- | --- |
| O=C(O)C(F)(F)c1cccc(Cl)c1Cl [Compound 1.034] | 2 (2=21-40%) | 5 (5=81-100%) | 1 (1=0-20%) | 2 (2=21-40%) | 5 (5=81-100%) | 2 (2=21-40%) | 4 (4=61-80%) | 3 (3=41-60%) | 3 (3=41-60%) | 1 (1=0-20%) |  |
| O=C([O-])C(F)(F)c1cccc(Cl)c1Cl.[Na+] [Compound 1.038] | 1 (1=0-20%) | 5 (5=81-100%) | 3 (3=41-60%) | 2 (2=21-40%) | 5 (5=81-100%) | 2 (2=21-40%) | 4 (4=61-80%) | 4 (4=61-80%) | 4 (4=61-80%) | 1 (1=0-20%) |  |
| O=C(O)C(F)(F)c1cccc(Cl)c1Cl [Compound 1.039] | 1 (1=0-20%) | 5 (5=81-100%) | 2 (2=21-40%) | 3 (3=41-60%) | 5 (5=81-100%) | 2 (2=21-40%) | 4 (4=61-80%) | 3 (3=41-60%) | 3 (3=41-60%) | 1 (1=0-20%) |  |
| O=C(O)C(F)(F)c1cccc(Cl)c1Cl [Compound 1.040] | 1 (1=0-20%) | 5 (5=81-100%) | 1 (1=0-20%) | 1 (1=0-20%) | 4 (4=61-80%) | 2 (2=21-40%) | 3 (3=41-60%) | 3 (3=41-60%) | 2 (2=21-40%) | 1 (1=0-20%) |  |
| O=C(O)C(F)(F)c1cccc(Cl)c1Cl [Compound 1.041] |  |  |  |  |  | 4 (4=61-80%) |  |  | 4 (4=61-80%) | 4 (4=61-80%) |  |
| O=C([O-])C(F)(F)c1cccc(Cl)c1Cl.[K+] [Compound 1.042] | 1 (1=0-20%) | 5 (5=81-100%) |  | 2 (2=21-40%) | 5 (5=81-100%) | 2 (2=21-40%) | 4 (4=61-80%) | 3 (3=41-60%) | 4 (4=61-80%) | 1 (1=0-20%) |  |
| O=C(O)C(F)(F)c1c(Cl)cccc1Cl [Compound 1.044] | 1 (1=0-20%) | 3 (3=41-60%) |  |  | 3 (3=41-60%) | 1 (1=0-20%) | 4 (4=61-80%) |  |  |  | 2 (2=21-40%) |
| O=C(O)C(F)(F)c1cccc(Cl)c1Br [Compound 1.050] | 2 (2=21-40%) | 5 (5=81-100%) |  |  | 5 (5=81-100%) | 2 (2=21-40%) | 5 (5=81-100%) |  |  |  | 5 (5=81-100%) |
| O=C(O)C(F)(F)c1ccc(F)c(Cl)c1F [Compound 1.051] | 1 (1=0-20%) | 5 (5=81-100%) |  |  | 5 (5=81-100%) | 1 (1=0-20%) | 4 (4=61-80%) |  |  |  | 3 (3=41-60%) |
| Cc1c(Cl)cccc1C(F)(F)C(=O)O [Compound 1.058] | 3 (3=41-60%) | 5 (5=81-100%) |  |  | 5 (5=81-100%) | 3 (3=41-60%) | 5 (5=81-100%) |  |  |  | 5 (5=81-100%) |
| O=C(O)C(F)(F)c1cccc(C(F)(F)F)c1Cl [Compound 1.059] | 1 (1=0-20%) | 5 (5=81-100%) |  |  | 5 (5=81-100%) | 3 (3=41-60%) | 5 (5=81-100%) |  |  |  | 1 (1=0-20%) |
| O=C(O)C(F)(F)c1cccc(Cl)c1C(F)(F)F [Compound 1.060] | 1 (1=0-20%) | 3 (3=41-60%) |  |  | 5 (5=81-100%) | 1 (1=0-20%) | 5 (5=81-100%) |  |  |  | 5 (5=81-100%) |
| Cc1cccc(C(F)(F)C(=O)O)c1F.N [Compound 1.061] | 1 (1=0-20%) | 1 (1=0-20%) |  |  | 1 (1=0-20%) | 1 (1=0-20%) | 3 (3=41-60%) |  |  |  | 3 (3=41-60%) |
| Cc1cccc(C(F)(F)C(=O)O)c1C(F)(F)F.N [Compound 1.062] | 1 (1=0-20%) | 3 (3=41-60%) |  |  | 4 (4=61-80%) | 1 (1=0-20%) | 3 (3=41-60%) |  |  |  | 3 (3=41-60%) |
| Cc1ccc(Cl)c(Cl)c1C(F)(F)C(=O)O.N [Compound 1.063] | 1 (1=0-20%) | 1 (1=0-20%) |  |  | 4 (4=61-80%) | 1 (1=0-20%) | 3 (3=41-60%) |  |  |  | 1 (1=0-20%) |
| Cc1c(F)cccc1C(F)(F)C(=O)O [Compound 1.075] | 1 (1=0-20%) | 3 (3=41-60%) |  |  | 5 (5=81-100%) | 1 (1=0-20%) | 4 (4=61-80%) |  |  |  | 3 (3=41-60%) |
| Cc1c(Cl)ccc(Cl)c1C(F)(F)C(=O)O.N [Compound 1.084] | 1 (1=0-20%) | 1 (1=0-20%) |  |  | 2 (2=21-40%) | 1 (1=0-20%) | 4 (4=61-80%) |  |  |  | 2 (2=21-40%) |
